# Results published in patent publication US20240209028A1, “CNP COMPOUNDS” (priority 2022, published 2024).
# Starred links: 1 amine or outer side, 2 acyl side, 3 side chain; linkers in the order of their positions; H or OH if unused. Positions of bridges follow the written chain, without caps; N, C: chain ends. Residues, ends and D or L forms follow the SMILES beside them. *: point of attachment. C18 diacid = O=C(O)CCCCCCCCCCCCCCCCC(=O)*; γGlu = O=C(O)[C@H](CCC(=O)[*:2])N[*:1]; AEEA = NCCOCCOCC(=O)O
# Target: T1, human natriuretic peptide receptor 2 (hNPR2) (Homo sapiens, UniProt P20594)
# T1 construct: expressed in transfected cells; host or cells: HEK293 (ATCC CRL-1573), clone 35, co-transfected with pGloSensor-42F
# T1 sequence (P20594 23-1047): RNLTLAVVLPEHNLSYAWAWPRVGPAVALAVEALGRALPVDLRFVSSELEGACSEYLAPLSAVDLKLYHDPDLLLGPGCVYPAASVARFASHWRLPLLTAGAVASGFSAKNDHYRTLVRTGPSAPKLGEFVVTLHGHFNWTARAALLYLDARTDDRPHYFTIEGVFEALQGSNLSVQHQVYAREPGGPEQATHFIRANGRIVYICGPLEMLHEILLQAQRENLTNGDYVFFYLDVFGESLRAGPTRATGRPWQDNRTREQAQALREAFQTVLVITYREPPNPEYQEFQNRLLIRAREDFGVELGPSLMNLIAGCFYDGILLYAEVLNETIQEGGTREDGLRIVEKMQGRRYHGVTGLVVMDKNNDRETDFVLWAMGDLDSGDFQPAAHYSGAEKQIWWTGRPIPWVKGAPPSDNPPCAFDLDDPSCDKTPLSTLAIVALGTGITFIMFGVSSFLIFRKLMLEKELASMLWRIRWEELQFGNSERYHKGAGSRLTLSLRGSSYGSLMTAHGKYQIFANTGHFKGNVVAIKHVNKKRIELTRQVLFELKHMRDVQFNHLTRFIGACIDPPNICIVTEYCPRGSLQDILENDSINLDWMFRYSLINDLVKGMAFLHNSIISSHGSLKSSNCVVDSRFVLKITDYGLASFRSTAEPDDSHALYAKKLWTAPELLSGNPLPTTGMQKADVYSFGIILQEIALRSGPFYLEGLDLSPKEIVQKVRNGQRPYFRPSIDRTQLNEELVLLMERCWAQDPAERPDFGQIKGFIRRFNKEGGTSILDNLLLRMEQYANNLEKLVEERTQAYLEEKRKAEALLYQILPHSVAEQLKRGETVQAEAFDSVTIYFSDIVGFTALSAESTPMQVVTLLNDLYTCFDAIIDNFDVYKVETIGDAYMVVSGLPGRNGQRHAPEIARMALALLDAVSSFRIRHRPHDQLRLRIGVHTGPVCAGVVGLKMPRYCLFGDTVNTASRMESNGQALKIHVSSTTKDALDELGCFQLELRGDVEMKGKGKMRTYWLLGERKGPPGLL
# Experiment: In vitro hNPR2 activity assay (cGMP GloSensor reporter, HEK293)
# Type: cell-based
# Settings: for hNPR2 0% HSA. [EC50% rel CNP]: potency relative to CNP22 (0065); for EC50: 0% HSA, HEK293-hNPR2/GloSensor cells
# Method: To evaluate the in vitro activity of CNP22 (0065; Chem. 1) and CNP compounds of the invention, they were tested for their ability to induce production of cyclic guanosine monophosphate (cGMP) in reporter cells expressing the human natriuretic peptide receptor 2 (hNPR2).
# Cell culture: To produce the reporter cell line, HEK293 (ATCC® CRL-1573™) cells were stably transfected with the pGloSensor-42F reporter plasmid (GloSensor cGMP reporter—luciferase, Promega) and an expression plasmid encoding the hNPR2 receptor. A single cell clone was isolated for the reporter cell line. When reporter cells are exposed to an hNPR2 activating compound, hNPR2 cause production of cGMP. […] Active GloSensor luciferase is able to convert luciferin to oxyluciferin, a process that produces bioluminescence. Upon cell lysis and supply of luciferase substrate, luciferase activity can be quantified by detection of luminescence. Therefore, addition of an hNPR2 activating compound and subsequent addition of detection reagent to reporter cells causes generation of luminescence in a dose dependent manner. […] This measure, also referred to as in vitro potency, is reported for all compounds tested. In all the in vitro activity experiments, CNP22 was used as a positive in-plate control for hNPR2 activation. To reduce inter-assay variation, we also report the potency of each compound relative to the potency of the CNP22 control on each plate.
# Procedure: HEK293-hNPR2/GloSensor clone 35 cells were continuously cultured in selection medium (DMEM containing 10% FCS, 1% P/S, 200 μg/mL G418 and 100 μg/mL hygromycin). To perform the assay, cells were detached with TrypLE Express (Gibco #12604013), put through a 70 μm cell strainer, counted and seeded in 30 μL/well assay medium (DMEM without phenol red and with 1% P/S) at 10,000 cells/well in white 384-well plates (Perkin Elmer #6007680) overnight. The following day, test compounds were serial diluted in dilution medium (DMEM without phenol red containing 1% OVA (Sigma #A5505 lot 04M7001V), 0.01% Tween20 (Roche #33766700) and 1% P/S) and 10 μL/well of diluted test compounds were subsequently added to the cells. For each compound, ten different concentrations in the range 0.25 μM-10 μM were tested. After 30 min of incubation at 37° C. and 5% CO2, 40 μL/well Bright-Glo detection reagent (Promega #E2650) was added. […] To determine the in vitro potency or EC50 of each test compound, a four parameter logistic regression was done on the raw data for each test compound using the Python package SciPy optimize. The average EC50 values are listed as “hNPR2 0% HSA. [EC50 (nM)]” in Table 2. A relative potency was calculated by the following expression: EC50 (CNP22 in-plate control)/EC50 (test compound)*100, shown as “hNPR2 0% HSA. [EC50% rel CNP]” in Table 2. A minimum of two replicates was measured for each test compound.
compound,measurement,value
CC[C@H](C)[C@@H]1NC(=O)[C@H](CCCNC(=N)N)NC(=O)[C@H](CC(=O)O)NC(=O)[C@H](CC(C)C)NC(=O)[C@H](CCCCN)NC(=O)[C@H](CC(C)C)NC(=O)CNC(=O)[C@H](Cc2ccccc2)NC(=O)[C@@H](NC(=O)CNC(=O)[C@H](CCCCN)NC(=O)[C@H](CO)NC(=O)[C@H](CC(C)C)NC(=O)CN)CSSC[C@@H](C(=O)O)NC(=O)CNC(=O)[C@H](CC(C)C)NC(=O)CNC(=O)[C@H](CO)NC(=O)[C@H](CCSC)NC(=O)[C@H](CO)NC(=O)CNC1=O [compound 0065],hNPR2 0% HSA. [EC50% rel CNP],100.0%
CC[C@H](C)[C@@H]1NC(=O)[C@H](CCCNC(=N)N)NC(=O)[C@H](CC(=O)O)NC(=O)[C@H](CC(C)C)NC(=O)[C@H](CCCCN)NC(=O)[C@H](CC(C)C)NC(=O)CNC(=O)[C@H](Cc2ccccc2)NC(=O)[C@@H](NC(=O)CNC(=O)[C@H](CCCCN)NC(=O)[C@H](CO)NC(=O)[C@H](CC(C)C)NC(=O)CNC(=O)COCCOCCNC(=O)COCCOCCNC(=O)CC[C@H](NC(=O)CCCCCCCCCCCCCCCCC(=O)O)C(=O)O)CSSC[C@@H](C(=O)O)NC(=O)CNC(=O)[C@H](CC(C)C)NC(=O)CNC(=O)[C@H](CO)NC(=O)[C@H](CCSC)NC(=O)[C@H](CO)NC(=O)CNC1=O [compound 0089],EC50,12.3 nM
same,hNPR2 0% HSA. [EC50% rel CNP],3.1%
CC[C@H](C)[C@@H]1NC(=O)[C@H](CCCNC(=N)N)NC(=O)[C@H](CC(=O)O)NC(=O)[C@H](CC(C)C)NC(=O)[C@H](CCCCN)NC(=O)[C@H](CC(C)C)NC(=O)CNC(=O)[C@H](Cc2ccccc2)NC(=O)[C@@H](NC(=O)CNC(=O)[C@H](CCCCN)NC(=O)[C@H](CO)NC(=O)[C@H](CC(C)C)NC(=O)CNC(=O)COCCOCCNC(=O)COCCOCCNC(=O)COCCOCCNC(=O)COCCOCCNC(=O)COCCOCCNC(=O)COCCOCCNC(=O)COCCOCCNC(=O)COCCOCCNC(=O)CC[C@H](NC(=O)CCCCCCCCCCCCCCCCC(=O)O)C(=O)O)CSSC[C@@H](C(=O)O)NC(=O)CNC(=O)[C@H](CC(C)C)NC(=O)CNC(=O)[C@H](CO)NC(=O)[C@H](CCSC)NC(=O)[C@H](CO)NC(=O)CNC1=O [compound 0231],EC50,14.5 nM
same,hNPR2 0% HSA. [EC50% rel CNP],0.8%
CC[C@H](C)[C@@H]1NC(=O)[C@H](CCCNC(=N)N)NC(=O)[C@H](CC(=O)O)NC(=O)[C@H](CC(C)C)NC(=O)[C@H](CCCCN)NC(=O)[C@H](CC(C)C)NC(=O)CNC(=O)[C@H](Cc2ccccc2)NC(=O)[C@@H](NC(=O)CNC(=O)[C@H](CCCCN)NC(=O)[C@H](CO)NC(=O)[C@H](CC(C)C)NC(=O)CNC(=O)[C@H](CCCCN)NC(=O)[C@H](CCCCN)NC(=O)[C@H](CCC(N)=O)NC(=O)[C@H](C)NC(=O)CNC(=O)[C@H](CCC(=O)O)NC(=O)[C@H](Cc2ccc(O)cc2)NC(=O)COCCOCCNC(=O)COCCOCCNC(=O)CC[C@H](NC(=O)CCCCCCCCCCCCCCCCC(=O)O)C(=O)O)CSSC[C@@H](C(=O)O)NC(=O)CNC(=O)[C@H](CC(C)C)NC(=O)CNC(=O)[C@H](CO)NC(=O)[C@H](CC(C)C)NC(=O)[C@H](CO)NC(=O)CNC1=O [compound 1221],EC50,1.17 nM
same,hNPR2 0% HSA. [EC50% rel CNP],35.9%
CC[C@H](C)[C@@H]1NC(=O)[C@H](CCCNC(=N)N)NC(=O)[C@H](CC(=O)O)NC(=O)[C@H](CC(C)C)NC(=O)[C@H](CCCCN)NC(=O)[C@H](CC(C)C)NC(=O)CNC(=O)[C@H](Cc2ccccc2)NC(=O)[C@@H](NC(=O)CNC(=O)[C@H](CCCCN)NC(=O)[C@H](CO)NC(=O)[C@H](CC(C)C)NC(=O)CNC(=O)[C@H](CCCCN)NC(=O)[C@H](CCCCN)NC(=O)[C@H](CCC(N)=O)NC(=O)[C@H](C)NC(=O)CNC(=O)[C@H](CCC(=O)O)NC(=O)[C@H](CCC(=O)O)NC(=O)COCCOCCNC(=O)COCCOCCNC(=O)CC[C@H](NC(=O)CCCCCCCCCCCCCCCCC(=O)O)C(=O)O)CSSC[C@@H](C(=O)O)NC(=O)CNC(=O)[C@H](CC(C)C)NC(=O)CNC(=O)[C@H](CO)NC(=O)[C@H](CC(C)C)NC(=O)[C@H](CO)NC(=O)CNC1=O [compound 1222],EC50,2.94 nM
same,hNPR2 0% HSA. [EC50% rel CNP],14.3%
CC[C@H](C)[C@@H]1NC(=O)[C@H](CCCNC(=N)N)NC(=O)[C@H](CC(=O)O)NC(=O)[C@H](CC(C)C)NC(=O)[C@H](CCCCN)NC(=O)[C@H](CC(C)C)NC(=O)CNC(=O)[C@H](Cc2ccccc2)NC(=O)[C@@H](NC(=O)CNC(=O)[C@H](CCCCN)NC(=O)[C@H](CO)NC(=O)[C@H](CC(C)C)NC(=O)CNC(=O)[C@H](CCCCN)NC(=O)[C@H](CCC(=O)O)NC(=O)[C@H](CCC(N)=O)NC(=O)[C@H](C)NC(=O)CNC(=O)[C@H](CCC(=O)O)NC(=O)[C@H](Cc2ccc(O)cc2)NC(=O)COCCOCCNC(=O)COCCOCCNC(=O)CC[C@H](NC(=O)CCCCCCCCCCCCCCCCC(=O)O)C(=O)O)CSSC[C@@H](C(=O)O)NC(=O)CNC(=O)[C@H](CC(C)C)NC(=O)CNC(=O)[C@H](CO)NC(=O)[C@H](CC(C)C)NC(=O)[C@H](CO)NC(=O)CNC1=O [compound 1223] ({C18 diacid-γGlu-AEEA-AEEA}-YEGAQEKGLSKGCFGLKLDRIGSLSGLGC-OH; disulfide 13-29),EC50,1.05 nM
same,hNPR2 0% HSA. [EC50% rel CNP],6.77%
CC[C@H](C)[C@@H]1NC(=O)[C@H](CCCNC(=N)N)NC(=O)[C@H](CC(=O)O)NC(=O)[C@H](CC(C)C)NC(=O)[C@H](CCCCN)NC(=O)[C@H](CC(C)C)NC(=O)CNC(=O)[C@H](Cc2ccccc2)NC(=O)[C@@H](NC(=O)CNC(=O)[C@H](CO)NC(=O)[C@H](CO)NC(=O)[C@H](CC(C)C)NC(=O)CNC(=O)[C@H](CCCCN)NC(=O)[C@H](CCCCN)NC(=O)[C@H](CCC(N)=O)NC(=O)[C@H](C)NC(=O)CNC(=O)[C@H](CCC(=O)O)NC(=O)[C@H](Cc2ccc(O)cc2)NC(=O)COCCOCCNC(=O)COCCOCCNC(=O)CC[C@H](NC(=O)CCCCCCCCCCCCCCCCC(=O)O)C(=O)O)CSSC[C@@H](C(=O)O)NC(=O)CNC(=O)[C@H](CC(C)C)NC(=O)CNC(=O)[C@H](CO)NC(=O)[C@H](CC(C)C)NC(=O)[C@H](CO)NC(=O)CNC1=O [compound 1224] ({C18 diacid-γGlu-AEEA-AEEA}-YEGAQKKGLSSGCFGLKLDRIGSLSGLGC-OH; disulfide 13-29),EC50,0.86 nM
same,hNPR2 0% HSA. [EC50% rel CNP],16.9%
